Columns and labels:
[1] = target: 5-hydroxytryptamine receptor 1E (Homo sapiens) (UniProt P28566); details: Compound concentration 10.0 uM
[2] = target: Sodium-dependent dopamine transporter (Homo sapiens, UniProt Q01959); assay: GPCRScan assay: inhibition of DAT; design: radioligand conc. used [nm] 3.6 – 16.0, parental cells stable HEK
[3] = target: T1, Alpha-2B adrenergic receptor (Homo sapiens) (UniProt P18089); details: Compound concentration 10.0 uM
T1 sequence (whole entry): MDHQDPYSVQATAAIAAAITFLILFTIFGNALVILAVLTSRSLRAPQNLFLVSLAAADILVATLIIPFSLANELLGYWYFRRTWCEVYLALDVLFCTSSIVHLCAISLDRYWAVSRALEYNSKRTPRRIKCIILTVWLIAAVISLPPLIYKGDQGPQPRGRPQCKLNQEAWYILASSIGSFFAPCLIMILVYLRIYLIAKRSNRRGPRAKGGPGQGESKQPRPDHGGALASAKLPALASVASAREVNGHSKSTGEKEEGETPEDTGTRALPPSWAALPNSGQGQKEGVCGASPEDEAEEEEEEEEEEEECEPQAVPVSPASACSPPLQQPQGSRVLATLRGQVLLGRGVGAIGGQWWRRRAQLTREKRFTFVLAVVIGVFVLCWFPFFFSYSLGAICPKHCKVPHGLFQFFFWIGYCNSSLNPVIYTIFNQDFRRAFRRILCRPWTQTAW

[4] = target: Serine/threonine-protein kinase TAO2 (Homo sapiens) (UniProt Q9UL54); assay: TAO kinase 2 Millipore kinase panel; details: Compound concentration 10.0 uM
[5] = target: Protein-tyrosine kinase 6 (Homo sapiens) (UniProt Q13882); assay: PTK6 protein tyrosine kinase 6 Millipore kinase panel; details: Compound concentration 10.0 uM
[6] = target: Serine/threonine-protein kinase PLK1 (Homo sapiens) (UniProt P53350); assay: polo-like kinase 1 Millipore kinase panel; details: Compound concentration 10.0 uM
[7] = target: Homeodomain-interacting protein kinase 2 (Homo sapiens) (UniProt Q9H2X6); assay: homeodomain interacting protein kinase 2 Millipore kinase panel; details: Compound concentration 10.0 uM
[8] = target: Kappa-type opioid receptor (Rattus norvegicus) (UniProt P34975); assay: rOP2 Cerep panel; details: Compound concentration 10.0 uM
[9] = target: Serine/threonine-protein kinase MARK2 (Homo sapiens) (UniProt Q7KZI7); assay: MAP/microtubule affinity-regulating kinase 2 Millipore kinase panel; details: Compound concentration 10.0 uM
[10] = target: Histamine H4 receptor (Homo sapiens) (UniProt Q9H3N8); details: Compound concentration 10.0 uM
[11] = target: Type-1 angiotensin II receptor (Homo sapiens) (UniProt P30556); assay: hAT1 Cerep panel; details: Compound concentration 10.0 uM
[12] = target: Ephrin type-A receptor 1 (Homo sapiens) (UniProt P21709); assay: EPH receptor A1 Millipore kinase panel; details: Compound concentration 10.0 uM
Ephrin type-A receptor 1 (Homo sapiens), sequence (P21709 whole entry, canonical isoform): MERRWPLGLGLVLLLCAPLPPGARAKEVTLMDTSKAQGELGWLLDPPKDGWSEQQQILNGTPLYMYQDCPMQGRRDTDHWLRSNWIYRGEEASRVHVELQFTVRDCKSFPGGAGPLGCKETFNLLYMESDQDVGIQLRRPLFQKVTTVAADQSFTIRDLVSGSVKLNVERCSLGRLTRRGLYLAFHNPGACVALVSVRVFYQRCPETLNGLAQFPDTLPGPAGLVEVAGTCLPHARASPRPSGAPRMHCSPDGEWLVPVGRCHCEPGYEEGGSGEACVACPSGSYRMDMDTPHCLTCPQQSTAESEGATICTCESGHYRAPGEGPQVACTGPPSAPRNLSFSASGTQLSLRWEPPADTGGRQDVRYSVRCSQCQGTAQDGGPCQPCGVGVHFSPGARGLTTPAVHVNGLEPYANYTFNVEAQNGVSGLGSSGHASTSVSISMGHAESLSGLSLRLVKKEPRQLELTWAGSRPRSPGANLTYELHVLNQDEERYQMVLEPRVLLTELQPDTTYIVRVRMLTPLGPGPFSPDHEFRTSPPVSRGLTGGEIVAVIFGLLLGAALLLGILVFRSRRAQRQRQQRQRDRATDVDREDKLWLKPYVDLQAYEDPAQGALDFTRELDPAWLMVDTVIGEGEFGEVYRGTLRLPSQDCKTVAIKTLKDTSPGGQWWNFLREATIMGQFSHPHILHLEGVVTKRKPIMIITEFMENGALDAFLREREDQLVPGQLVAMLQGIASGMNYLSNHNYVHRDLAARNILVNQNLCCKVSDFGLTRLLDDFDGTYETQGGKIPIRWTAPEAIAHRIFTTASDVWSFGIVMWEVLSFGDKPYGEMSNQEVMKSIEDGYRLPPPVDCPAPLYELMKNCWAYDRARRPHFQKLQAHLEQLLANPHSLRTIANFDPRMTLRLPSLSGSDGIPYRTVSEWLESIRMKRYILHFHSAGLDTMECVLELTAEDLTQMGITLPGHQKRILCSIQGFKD

[13] = target: Phosphatidylinositol 4,5-bisphosphate 3-kinase catalytic subunit gamma isoform (Homo sapiens) (UniProt P48736); assay: phosphoinositide-3-kinase, catalytic, gamma polypeptide Millipore kinase panel; details: Compound concentration 10.0 uM
[14] = target: cGMP-dependent 3',5'-cyclic phosphodiesterase (Homo sapiens, UniProt O00408); assay: hPDE2A PDE scan
[15] = target: Muscarinic acetylcholine receptor M5 (Homo sapiens) (UniProt P08912); assay: hM5 Cerep panel; details: Compound concentration 10.0 uM
[16] = target: Tyrosine-protein kinase FRK (Homo sapiens) (UniProt P42685); assay: fyn-related kinase Millipore kinase panel; details: Compound concentration 10.0 uM
Tyrosine-protein kinase FRK (Homo sapiens), sequence (P42685 whole entry): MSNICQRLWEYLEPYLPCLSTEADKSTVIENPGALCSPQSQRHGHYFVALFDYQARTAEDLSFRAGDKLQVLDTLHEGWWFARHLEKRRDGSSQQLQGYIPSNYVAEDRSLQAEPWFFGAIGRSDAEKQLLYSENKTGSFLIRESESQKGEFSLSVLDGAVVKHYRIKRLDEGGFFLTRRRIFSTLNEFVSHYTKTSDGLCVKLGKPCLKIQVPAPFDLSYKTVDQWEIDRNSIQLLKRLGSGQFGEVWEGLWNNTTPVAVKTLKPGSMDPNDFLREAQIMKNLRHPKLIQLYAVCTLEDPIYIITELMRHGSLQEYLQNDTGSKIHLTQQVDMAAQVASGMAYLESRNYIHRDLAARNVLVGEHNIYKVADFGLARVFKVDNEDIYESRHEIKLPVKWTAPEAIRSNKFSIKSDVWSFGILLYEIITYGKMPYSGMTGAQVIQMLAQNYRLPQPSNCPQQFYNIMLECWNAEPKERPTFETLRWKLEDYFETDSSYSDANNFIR

[17] = target: Histamine H2 receptor (Homo sapiens) (UniProt P25021); details: Compound concentration 10.0 uM
[18] = organism: Rattus norvegicus; assay: rSLC6/GABA Cerep panel; details: Compound concentration 10.0 uM
[19] = target: Vascular endothelial growth factor receptor 3 (Homo sapiens) (UniProt P35916); assay: fms-related tyrosine kinase 4 Millipore kinase panel; details: Compound concentration 10.0 uM
[20] = target: Fibroblast growth factor receptor 2 (Homo sapiens) (UniProt P21802); assay: fibroblast growth factor receptor 2 Millipore kinase panel; details: Compound concentration 10.0 uM
Fibroblast growth factor receptor 2 (Homo sapiens), sequence (P21802 22-821 limits assumed): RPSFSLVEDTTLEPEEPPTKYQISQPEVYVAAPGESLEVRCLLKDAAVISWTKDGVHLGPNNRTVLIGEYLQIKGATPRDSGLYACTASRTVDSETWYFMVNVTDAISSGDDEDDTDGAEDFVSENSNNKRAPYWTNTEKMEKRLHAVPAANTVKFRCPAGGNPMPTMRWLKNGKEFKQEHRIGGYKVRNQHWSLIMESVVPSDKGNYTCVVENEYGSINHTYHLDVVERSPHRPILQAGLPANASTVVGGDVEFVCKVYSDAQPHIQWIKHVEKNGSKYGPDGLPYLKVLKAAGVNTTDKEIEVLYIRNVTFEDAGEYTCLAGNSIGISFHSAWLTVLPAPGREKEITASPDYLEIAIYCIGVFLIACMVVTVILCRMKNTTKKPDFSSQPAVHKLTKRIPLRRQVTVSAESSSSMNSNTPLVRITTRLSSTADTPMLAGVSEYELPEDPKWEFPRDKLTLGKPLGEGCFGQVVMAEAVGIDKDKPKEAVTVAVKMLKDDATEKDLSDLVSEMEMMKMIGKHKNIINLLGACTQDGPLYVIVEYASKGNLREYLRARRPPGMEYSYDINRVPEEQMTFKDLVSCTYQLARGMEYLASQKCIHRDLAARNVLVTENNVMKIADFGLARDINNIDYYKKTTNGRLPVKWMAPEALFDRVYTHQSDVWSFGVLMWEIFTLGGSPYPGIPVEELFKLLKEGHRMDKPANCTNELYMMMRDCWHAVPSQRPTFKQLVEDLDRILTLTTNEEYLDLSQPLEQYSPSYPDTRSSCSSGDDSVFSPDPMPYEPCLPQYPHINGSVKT

[21] = target: Rho-associated protein kinase 2 (Homo sapiens) (UniProt O75116); assay: Rho-associated, coiled-coil containing protein kinase 2 Millipore kinase panel; details: Compound concentration 10.0 uM
Rho-associated protein kinase 2 (Homo sapiens), sequence (O75116 whole entry, looked up): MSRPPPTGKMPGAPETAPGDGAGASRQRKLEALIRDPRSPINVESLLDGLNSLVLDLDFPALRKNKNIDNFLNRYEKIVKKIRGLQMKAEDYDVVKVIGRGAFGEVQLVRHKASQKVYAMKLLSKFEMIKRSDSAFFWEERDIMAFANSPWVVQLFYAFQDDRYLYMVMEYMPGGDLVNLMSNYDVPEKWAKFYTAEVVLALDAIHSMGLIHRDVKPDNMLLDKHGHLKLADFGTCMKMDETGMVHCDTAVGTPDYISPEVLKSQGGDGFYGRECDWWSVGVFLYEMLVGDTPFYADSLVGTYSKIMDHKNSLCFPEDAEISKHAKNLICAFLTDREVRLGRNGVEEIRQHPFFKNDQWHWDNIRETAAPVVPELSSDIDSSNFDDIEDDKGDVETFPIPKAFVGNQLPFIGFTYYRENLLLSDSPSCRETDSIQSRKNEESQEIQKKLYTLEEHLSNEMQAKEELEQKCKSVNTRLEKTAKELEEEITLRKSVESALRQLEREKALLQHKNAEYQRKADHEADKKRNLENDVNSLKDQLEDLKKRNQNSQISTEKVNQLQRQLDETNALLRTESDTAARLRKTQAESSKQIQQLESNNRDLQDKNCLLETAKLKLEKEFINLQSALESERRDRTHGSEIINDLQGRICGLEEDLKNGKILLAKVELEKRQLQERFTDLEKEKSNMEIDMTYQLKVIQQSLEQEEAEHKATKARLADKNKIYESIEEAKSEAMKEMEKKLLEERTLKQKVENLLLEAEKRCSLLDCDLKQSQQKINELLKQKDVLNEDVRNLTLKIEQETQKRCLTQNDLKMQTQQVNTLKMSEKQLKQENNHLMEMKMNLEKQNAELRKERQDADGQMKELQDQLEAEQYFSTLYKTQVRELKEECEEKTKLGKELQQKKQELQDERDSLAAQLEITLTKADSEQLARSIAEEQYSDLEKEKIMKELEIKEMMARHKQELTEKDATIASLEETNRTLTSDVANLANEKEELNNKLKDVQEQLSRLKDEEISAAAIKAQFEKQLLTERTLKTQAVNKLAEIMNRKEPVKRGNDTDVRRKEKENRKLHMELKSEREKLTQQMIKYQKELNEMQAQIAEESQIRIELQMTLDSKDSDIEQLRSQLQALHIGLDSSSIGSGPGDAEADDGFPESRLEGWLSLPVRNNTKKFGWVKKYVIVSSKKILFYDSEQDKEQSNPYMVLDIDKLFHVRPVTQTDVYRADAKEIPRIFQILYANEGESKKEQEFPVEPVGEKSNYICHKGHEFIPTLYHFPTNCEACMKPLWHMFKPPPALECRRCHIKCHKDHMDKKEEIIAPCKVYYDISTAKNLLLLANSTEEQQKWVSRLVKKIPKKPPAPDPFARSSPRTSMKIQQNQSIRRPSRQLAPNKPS

[22] = target: 5-hydroxytryptamine receptor 7 (Homo sapiens, UniProt P34969); assay: h5HT7 Cerep panel; details: Compound concentration 10.0 uM
5-hydroxytryptamine receptor 7, sequence (P34969 whole entry): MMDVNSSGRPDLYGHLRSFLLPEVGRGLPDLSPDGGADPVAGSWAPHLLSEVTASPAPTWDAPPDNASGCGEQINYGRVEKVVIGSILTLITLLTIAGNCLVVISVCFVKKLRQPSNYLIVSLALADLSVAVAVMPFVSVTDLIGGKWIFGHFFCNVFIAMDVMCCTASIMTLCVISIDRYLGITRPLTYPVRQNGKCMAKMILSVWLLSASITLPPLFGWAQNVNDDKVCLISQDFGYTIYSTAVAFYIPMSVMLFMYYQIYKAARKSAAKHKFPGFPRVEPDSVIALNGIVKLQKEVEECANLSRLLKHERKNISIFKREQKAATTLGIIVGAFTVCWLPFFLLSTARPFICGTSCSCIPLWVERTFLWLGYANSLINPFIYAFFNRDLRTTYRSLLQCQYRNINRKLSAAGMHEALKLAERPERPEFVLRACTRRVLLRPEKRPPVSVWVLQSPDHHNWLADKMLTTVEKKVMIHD

[23] = target: Acetylcholinesterase (Homo sapiens) (UniProt P22303); assay: hACHE Cerep panel; details: Compound concentration 10.0 uM
[24] = target: Progesterone receptor (Homo sapiens) (UniProt P06401); assay: hPR Cerep panel; details: Compound concentration 10.0 uM
[25] = target: Serine/threonine-protein kinase WNK2 (Homo sapiens) (UniProt Q9Y3S1); assay: WNK lysine deficient protein kinase 2 Millipore kinase panel; details: Compound concentration 10.0 uM
[26] = target: 5-hydroxytryptamine receptor 6 (Homo sapiens) (UniProt P50406); assay: h5HT6 Cerep panel; details: Compound concentration 10.0 uM
[27] = target: Prostaglandin G/H synthase 1 (Homo sapiens) (UniProt P23219); assay: hCOX1 Cerep panel; details: Compound concentration 10.0 uM
[28] = target: LIM domain kinase 1 (Homo sapiens) (UniProt P53667); assay: LIM domain kinase 1 Millipore kinase panel; details: Compound concentration 10.0 uM
[29] = glyine Cerep panel; details: Compound concentration 10.0 uM
[30] = target: Mitogen-activated protein kinase 8 (Homo sapiens) (UniProt P45983); assay: mitogen-activated protein kinase 8 Millipore kinase panel; details: Compound concentration 10.0 uM
[31] = target: Serine/threonine-protein kinase TAO3 (Homo sapiens) (UniProt Q9H2K8); assay: TAO kinase 3 Millipore kinase panel; details: Compound concentration 10.0 uM
[32] = target: T2, Muscarinic acetylcholine receptor M2 (Homo sapiens) (UniProt P08172); assay: hM2 Cerep panel; details: Compound concentration 10.0 uM
T2 sequence (whole entry): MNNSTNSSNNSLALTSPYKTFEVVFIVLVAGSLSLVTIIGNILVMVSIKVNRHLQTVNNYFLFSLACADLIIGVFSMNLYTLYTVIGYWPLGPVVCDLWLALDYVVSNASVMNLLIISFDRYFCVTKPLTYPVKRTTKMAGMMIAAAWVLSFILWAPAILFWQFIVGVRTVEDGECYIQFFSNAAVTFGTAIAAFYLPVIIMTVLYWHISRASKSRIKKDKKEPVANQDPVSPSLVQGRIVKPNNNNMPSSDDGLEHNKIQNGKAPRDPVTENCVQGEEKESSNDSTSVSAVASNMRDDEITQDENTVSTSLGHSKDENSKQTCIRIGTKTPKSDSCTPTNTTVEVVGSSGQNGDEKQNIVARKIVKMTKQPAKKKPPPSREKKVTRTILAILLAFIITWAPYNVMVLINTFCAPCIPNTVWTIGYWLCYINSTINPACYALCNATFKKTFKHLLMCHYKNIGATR

[33] = target: Ephrin type-A receptor 2 (Homo sapiens) (UniProt P29317); assay: EPH receptor A2 Millipore kinase panel; details: Compound concentration 10.0 uM
[34] = target: Mitogen-activated protein kinase 14 (Homo sapiens) (UniProt Q16539); assay: mitogen-activated protein kinase 14 Millipore kinase panel; details: Compound concentration 10.0 uM
[35] = target: G protein-coupled receptor kinase 6 (Homo sapiens) (UniProt P43250); assay: G protein-coupled receptor kinase 6 Millipore kinase panel; details: Compound concentration 10.0 uM
[36] = target: Histamine H1 receptor (Homo sapiens) (UniProt P35367); assay: hH1 Cerep panel; details: Compound concentration 10.0 uM
[37] = target: Melanocortin receptor 4 (Homo sapiens) (UniProt P32245); assay: hMC4 Cerep panel; details: Compound concentration 10.0 uM
[38] = target: Vascular endothelial growth factor receptor 1 (Homo sapiens) (UniProt P17948); assay: fms-related tyrosine kinase 1 Millipore kinase panel; details: Compound concentration 10.0 uM
[39] = target: Mitogen-activated protein kinase 1 (Homo sapiens) (UniProt P28482); assay: mitogen-activated protein kinase 1 (MAPK2) Millipore kinase panel; details: Compound concentration 10.0 uM

Sodium-dependent dopamine transporter, sequence (Q01959 whole entry): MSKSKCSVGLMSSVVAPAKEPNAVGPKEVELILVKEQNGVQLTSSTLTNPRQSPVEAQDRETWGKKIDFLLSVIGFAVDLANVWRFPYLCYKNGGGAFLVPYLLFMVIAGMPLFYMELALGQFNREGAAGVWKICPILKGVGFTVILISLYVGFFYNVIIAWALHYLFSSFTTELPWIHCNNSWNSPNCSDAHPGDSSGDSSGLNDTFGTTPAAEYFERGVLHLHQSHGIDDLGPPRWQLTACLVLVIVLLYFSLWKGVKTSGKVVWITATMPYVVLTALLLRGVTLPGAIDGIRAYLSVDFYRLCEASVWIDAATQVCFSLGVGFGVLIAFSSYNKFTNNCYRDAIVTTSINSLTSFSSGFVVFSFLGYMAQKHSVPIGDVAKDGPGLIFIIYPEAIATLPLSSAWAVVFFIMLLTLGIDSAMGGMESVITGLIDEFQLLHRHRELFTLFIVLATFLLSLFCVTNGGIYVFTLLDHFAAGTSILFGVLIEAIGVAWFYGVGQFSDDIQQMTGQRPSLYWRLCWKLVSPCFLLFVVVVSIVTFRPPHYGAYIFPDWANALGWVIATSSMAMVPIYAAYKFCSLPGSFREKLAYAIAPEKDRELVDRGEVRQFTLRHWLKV

SMILES: c1ccc(C2CCN(c3cnc4c(N5CCOCC5)nccn34)CC2)cc1
- inhibition [1]: 5.84%
- Ki ([2]; read-out: Ki): 4.13 µM
- Ki ([2]; read-out: pKi (converted)): 4.17 µM
- inhibition [3]: 31.4%

SMILES: COCCc1ccc(-c2c(C)nc3c(N4CCOCC4)ccnn23)cn1 [JNJ-42396302]
- inhibition [4]: 10%
- inhibition [5]: -6%
- inhibition [6]: 0%
- inhibition [7]: 0%
- effect [8]: 1.7%
- inhibition [9]: 9%
- inhibition [10]: -1.08%
- effect [11]: 14.4%
- inhibition [12]: 7%
- inhibition [13]: -4%
- Ki [14]: 32 µM
- effect [15]: -0.55%
- inhibition [3]: 78.2%
- inhibition [16]: -7%
- inhibition [17]: 12.9%
- effect [18]: -6%
- inhibition [19]: -4%
- inhibition [20]: -5%
- inhibition [21]: -3%
- effect [22]: 8.6%
- effect [23]: 0.2%
- effect [24]: 13.5%
- inhibition [25]: -1%
- effect [26]: 4.9%
- effect [27]: 13%
- inhibition [28]: -3%
- effect [29]: -23.1%
- inhibition [30]: -3%
- inhibition [31]: 0%
- effect [32]: 11%
- inhibition [33]: 7%
- inhibition [34]: -4%
- inhibition [35]: 3%
- effect [36]: 2.05%
- effect [37]: 6.35%
- inhibition [38]: -5%
- inhibition [39]: 4%

— ChEMBL document CHEMBL4800727 (2021)
